Source: patent US11667602B2, “Compounds and their use” (AstraZeneca AB, priority 2020, dated 2023)
Values after ≈ are worked out from the molar mass of the structure shown.

What was measured:
[1] = Human Plasma Protein Binding (Test B); type: in vitro ADME; conditions: fraction unbound (fu)
Procedure, shortened: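 Human plasma protein binding run per the published Wernevik et al. (2020) integrated DMPK panel protocol. Values are fraction unbound (fu, % free); repeat runs averaged arithmetically.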

Solubility (Test F) = type: physicochemical; conditions: arithmetic mean if run multiple times
Method: The assay was conducted according to the Solubility Assay described in pages 164-167 of Wernevik, J. et al., “A Fully Integrated Assay Panel for Early Drug Metabolism and Pharmacokinetics Profiling”, Assay and Drug Development Technologies, 2020, 18(4), 157-179. Data are reported in Table 36 as solubility ([…]. Where the assay was run multiple times for the same compound, the arithmetic mean is reported.

[2] = Human Liver Microsomal Stability (Test C); type: in vitro ADME; conditions: human, liver microsomes
Procedure, shortened: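 Human liver microsome incubation per the Wernevik et al. integrated DMPK panel protocol. Intrinsic clearance reported as CLint in μl/min/mg protein, averaged arithmetically over repeat runs.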

human RXFP1 = biological target: T1, human RXFP1 (Homo sapiens, UniProt Q9HBX9); assay: RXFP1 Hu cAMP (Test A); type: cell-based; parameters: expressed in transfected cells; host or cells: Jump-In T-REx CHO-K1 cells (ThermoFisher), induced with 10 ng/ml doxycycline for 24 h; conditions: RXFP1 Hu cAMP; for EC50: read-out: Test A EC50
T1 sequence (Q9HBX9 1-757): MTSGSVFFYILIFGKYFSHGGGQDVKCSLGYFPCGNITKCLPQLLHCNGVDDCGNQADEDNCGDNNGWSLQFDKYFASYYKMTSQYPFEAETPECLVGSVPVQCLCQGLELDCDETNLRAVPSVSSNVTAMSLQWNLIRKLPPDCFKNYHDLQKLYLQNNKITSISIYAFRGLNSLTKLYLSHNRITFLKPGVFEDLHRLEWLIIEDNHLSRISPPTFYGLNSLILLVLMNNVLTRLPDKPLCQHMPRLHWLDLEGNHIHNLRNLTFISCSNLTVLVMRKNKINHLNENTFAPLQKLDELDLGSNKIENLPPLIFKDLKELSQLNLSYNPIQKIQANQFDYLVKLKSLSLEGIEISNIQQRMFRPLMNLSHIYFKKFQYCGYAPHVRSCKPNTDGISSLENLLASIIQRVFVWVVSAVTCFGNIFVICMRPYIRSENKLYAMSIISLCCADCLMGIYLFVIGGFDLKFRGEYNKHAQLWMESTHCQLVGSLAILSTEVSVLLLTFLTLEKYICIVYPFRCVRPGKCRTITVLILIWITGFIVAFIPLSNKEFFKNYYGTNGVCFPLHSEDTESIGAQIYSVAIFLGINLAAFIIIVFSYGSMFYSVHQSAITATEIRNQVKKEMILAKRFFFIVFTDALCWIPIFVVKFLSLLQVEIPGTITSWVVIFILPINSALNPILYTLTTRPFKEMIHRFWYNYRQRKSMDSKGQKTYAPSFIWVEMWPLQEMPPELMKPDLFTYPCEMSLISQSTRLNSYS
Procedure, shortened: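 Competitive HTRF cAMP readout (2 h, room temperature) in CHO-K1 cells stably expressing human RXFP1, induced with 10 ng/ml doxycycline for 24 h; IBMX 0.5 mM final.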

[3] = Rat Hepatocyte Stability (Test E); type: in vitro ADME; conditions: rat, hepatocytes, geometric mean if run multiple times
Procedure, shortened: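 Run per the published AstraZeneca-type rat hepatocyte stability protocol (Wernevik et al. panel). Values are mean intrinsic clearance, Clint in μl/min/10^6 cells; geometric mean used for repeated runs.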

| Compound | Test B Human Plasma Protein Binding (% free) [1] | solubility (Solubility (Test F)) | microsomal CLint [2] | Test A Sinf (human RXFP1) | EC50 (human RXFP1) | hepatocyte CLint [3] |
| --- | --- | --- | --- | --- | --- | --- |
| COc1cc(F)c(-c2ccc(C(=O)O)c(F)c2)cc1C(=O)N[C@@H]1[C@H]2CC[C@H](C2)[C@@H]1C(=O)Nc1cccc(S(=O)(=O)C(F)(F)F)c1 [Example 236, 2′,3-Difluoro-4′-methoxy-5′-(((1S,2R,3S,4R)-3-((3-((trifluoromethyl)sulfonyl)phenyl)carbamoyl)bicyclo[2.2.1]heptan-2-yl)carbamoyl)-[1,1′-biphenyl]-4-carboxylic acid] | 0.50 % free | > 1000 µM | 13 µL/min/mg | 103% | 210 nM | 14 µL/min/1e6 cells |
| COc1cc(F)c(-c2cnc(NCC(=O)O)nc2)cc1C(=O)N[C@@H]1[C@H]2CC[C@H](C2)[C@@H]1C(=O)Nc1cccc(S(=O)(=O)C(F)(F)F)c1 [Example 240] | 2.3 % free | 780 µM (≈ 519 µg/mL) | 19 µL/min/mg | 97% | 130 nM | 12 µL/min/1e6 cells |
| COc1cc(F)c(-c2ccc(OCC(=O)O)nc2)cc1C(=O)N[C@@H]1[C@H]2CC[C@H](C2)[C@@H]1C(=O)Nc1cccc(S(=O)(=O)C(F)(F)F)c1 [Example 241] | 0.69 % free | 550 µM (≈ 366 µg/mL) | 12 µL/min/mg | 99% | 140 nM | 12 µL/min/1e6 cells |
| COc1cc(F)c(-c2ccc3c(c2)OC[C@H]3CC(=O)O)cc1C(=O)N[C@@H]1[C@H]2CC[C@H](C2)[C@@H]1C(=O)Nc1cccc(S(=O)(=O)C(F)(F)F)c1 [Example 253] | <0.32 % free | > 1000 µM | 24 µL/min/mg | 102% | 31 nM | 8.8 µL/min/1e6 cells |
| COc1cc(F)c(-c2ccc3c(c2)OC[C@@H]3CC(=O)O)cc1C(=O)N[C@@H]1[C@H]2CC[C@H](C2)[C@@H]1C(=O)Nc1cccc(S(=O)(=O)C(F)(F)F)c1 [Example 254] | 0.30 % free | > 1000 µM | 31 µL/min/mg | 114% | 34 nM | 12 µL/min/1e6 cells |
| COc1cc(F)c(-c2ccc(OC(C)(C)C(=O)O)cc2)cc1C(=O)N[C@@H]1[C@H]2CC[C@H](C2)[C@@H]1C(=O)Nc1cccc(S(=O)(=O)C(F)(F)F)c1 [Example 256, 2-((2′-fluoro-4′-methoxy-5′-(((1S,2R,3S,4R)-3-((3-((trifluoromethyl)sulfonyl)phenyl)carbamoyl)bicyclo[2.2.1]heptan-2-yl)carbamoyl)-[1,1′-biphenyl]-4-yl)oxy)-2-methylpropanoic acid] | 0.050 % free | < 7 µM | 8.1 µL/min/mg | 99% | 250 nM | 12 µL/min/1e6 cells |
| COc1cc(F)c(-c2ccc(OCC(=O)O)cc2)cc1C(=O)N[C@@H]1[C@H]2CC[C@H](C2)[C@@H]1C(=O)Nc1cccc(S(=O)(=O)C(F)(F)F)c1 [Example 257, 2-((2′-Fluoro-4′-methoxy-5′-(((1S,2R,3S,4R)-3-((3-((trifluoromethyl)sulfonyl)phenyl)carbamoyl)bicyclo[2.2.1]heptan-2-yl)carbamoyl)-[1,1′-biphenyl]-4-yl)oxy)acetic acid] | 0.35 % free | > 1000 µM | 16 µL/min/mg | 96% | 59 nM | 9.5 µL/min/1e6 cells |
| COc1cc(F)c(-c2ccc(/C=C/C(=O)O)nc2)cc1C(=O)N[C@@H]1[C@H]2CC[C@H](C2)[C@@H]1C(=O)Nc1cccc(S(=O)(=O)C(F)(F)F)c1 [Example 260, (E)-3-(5-(2-Fluoro-4-methoxy-5-(((1S,2R,3S,4R)-3-((3-((trifluoromethyl)sulfonyl)phenyl)carbamoyl)bicyclo[2.2.1]heptan-2-yl)carbamoyl)phenyl)pyridin-2-yl)acrylic acid] | 0.57 % free | 360 µM (≈ 238 µg/mL) | 69 µL/min/mg | 108% | – | 69 µL/min/1e6 cells |
| COc1cc(F)c(-c2ccc(C[C@@H](N)C(=O)O)cc2)cc1C(=O)N[C@@H]1[C@H]2CC[C@H](C2)[C@@H]1C(=O)Nc1cccc(S(=O)(=O)C(F)(F)F)c1 [Example 291, (R)-2-Amino-3-(2′-fluoro-4′-methoxy-5′-(((1S,2R,3S,4R)-3-((3-((trifluoromethyl)sulfonyl)phenyl)carbamoyl)bicyclo[2.2.1]heptan-2-yl)carbamoyl)-[1,1′-biphenyl]-4-yl)propanoic acid] | <1.2 % free | 13 µM (≈ 8.81 µg/mL) | 18 µL/min/mg | 106% | 370 nM | 22 µL/min/1e6 cells |
| COc1cc(F)c(-c2cccc(CC(=O)O)c2)cc1C(=O)N[C@@H]1CCC[C@@H]1C(=O)Nc1cccc(S(=O)(=O)C(F)(F)F)c1 [Example 318] | 0.55 % free | 710 µM (≈ 442 µg/mL) | 13 µL/min/mg | 89% | 600 nM | 37 µL/min/1e6 cells |
| COc1cc(F)c(-c2cccc(CCC(=O)O)c2)cc1C(=O)N[C@@H]1CCC[C@@H]1C(=O)Nc1cccc(S(=O)(=O)C(F)(F)F)c1 [Example 319] | 0.44 % free | 380 µM (≈ 242 µg/mL) | 18 µL/min/mg | 79% | 750 nM | 29 µL/min/1e6 cells |
| COc1cc(F)c(-c2ccc(CCC(=O)O)cc2)cc1C(=O)N[C@@H]1CCC[C@@H]1C(=O)Nc1cccc(S(=O)(=O)C(F)(F)F)c1 [Example 321] | 0.45 % free | 950 µM (≈ 605 µg/mL) | 33 µL/min/mg | 101% | 340 nM | 59 µL/min/1e6 cells |
| COc1cc(F)c(O[C@H]2CC[C@@](F)(C(=O)O)CC2)cc1C(=O)N[C@@H]1[C@H]2CC[C@H](C2)[C@@H]1C(=O)Nc1cccc(S(=O)(=O)C(F)(F)F)c1 [Example 416] | 1.2 % free | > 1000 µM | 9.9 µL/min/mg | 103% | 320 nM | 10 µL/min/1e6 cells |
| O=C(N[C@@H]1[C@H]2CC[C@H](C2)[C@@H]1C(=O)Nc1cccc(S(=O)(=O)C(F)(F)F)c1)c1cc(O[C@H]2CC[C@@H](C(=O)O)CC2)c(F)cc1F [Example 430] | 3 % free | 760 µM (≈ 490 µg/mL) | 61 µL/min/mg | 101% | > 230 nM | 22 µL/min/1e6 cells |
